Values joined by “and” are separate entries in the source; they are usually repeats but may differ in a detail not shown here. Equal values may be shown once. Read-outs that look alike come from different tables or passages of the source. Marks after values point to notes of the source that are not given here.

Broadly, the IC50 is the concentration that inhibits the measured activity by half. One may read the melting point as the temperature of the solid-liquid transition.

Series [1] addresses T1, mPGES-1 (Homo sapiens, UniProt O14684).
T1 construct: microsomal fractions from IL-1β-stimulated A549 cells served as the enzyme source; endogenous in cells; host or cells: A549 cells (IL-1β-stimulated), microsomal fraction
T1 sequence (O14684 1-152): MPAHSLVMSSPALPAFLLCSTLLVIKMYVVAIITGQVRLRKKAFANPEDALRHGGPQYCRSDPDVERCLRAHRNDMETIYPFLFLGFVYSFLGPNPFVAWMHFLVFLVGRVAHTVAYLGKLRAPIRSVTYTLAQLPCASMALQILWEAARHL
To be noted: cited from earlier work; for IC50: ref Lauro et al., 2014.

For series [2], the system named is PGE2 production in A549 cells. Further details: method as in Kim et al., 2021. Conditions: ref Kim et al., 2021; cited from earlier work.
In another series the test system is IL-6. The experiment in a line: Rat serum IL-6 after carrageenan (ELISA). Conditions: for IL-6 serum concentration: mean ± SE. The format is in vivo. An excerpt:
(§1) In this study, specializing ELISA kits were used to determine the concentration of inflammatory cytokines PGE2, IL-6, and TNF-α. The study’s findings were examined in accordance with the instructions provided by the manufacturer, and measurements were taken based on the optical density at 450 nm.
In general terms: An ELISA detects its analyte on a solid surface through an enzyme-linked reagent.

The target of series [3] is T1, mPGES-1. The experiment in a line: Cell-free mPGES-1 enzyme assay (microsomal fractions from IL-1β-stimulated A549 cells). The series is classed as biochemical. Conditions: for remaining activity at 10 µM: 10 µM compound, read-out: mPGES-1 RA (%) 10 µM (residual activity percentage); for remaining activity at 10 µM / IC50: cell-free, A549 microsomes. Here is the method:
A cell-free assay was conducted to evaluate the capacity of compounds […] to act as inhibitors of mPGES-1. In this assay, microsomal fractions from IL-1β-stimulated A549 cells served as the enzyme source ([Gürses et al., 2021]). During the initial screening phase, compounds 3a–j were examined for their effects on mPGES-1 at a concentration of 10 µM.
Microsomal measures of A549 cells expressing mPGES-1 were made in accordance with prior research findings ([Koeberle et al., 2008]). These cells were cultivated in Dulbecco’s Modified Eagle Medium and resuspended in a homogenization buffer. Subsequently, the microsomes were subjected to pre-incubation with either assessed compounds or a carrier solution containing 0.1 percent DMSO. The enzymatic process was halted by introducing FeCl3, citric acid, and 11-PGE2 as an internal standard. The quantities of Prostaglandin E2 (PGE2) were measured via RP-HPLC methodologies.

In series [4] the test system is carrageen-induced paw edema. The experiment in a line: Carrageenan-induced paw edema bioassay. The series is classed as in vivo, rat. Further details: concentration or dose not given beside the values. To be noted: for % Of edema inhibition 1 h: 1 h after carrageenan injection; for % Of edema inhibition 3 h: 3 h after carrageenan injection; for % Of edema inhibition 5 h: 5 h after carrageenan injection. Here is the method: The compounds’ efficacy was measured as edema inhibition percentage (EI %) after 1, 3, and 5 h of carrageenan injection vs. the conventional medicine Celecoxib.
Compounds 3c, 3e, 3h, and 3j were chosen for in vivo anti-inflammatory testing using the carrageen-induced paw edema bioassay method described by [Winter et al, (1962)]. The compounds’ efficacy was measured as edema inhibition percentage (EI%) after 1, 3, and 5 h of carrageenan injection vs. the conventional medicine Celecoxib.

For a further series, the target named is T2, soya bean 5-LOX (Glycine max, UniProt P08170).
T2 construct: purchased Cayman Chemical, Ann Arbor, Michigan, USA 760700
T2 sequence (P08170 1-839): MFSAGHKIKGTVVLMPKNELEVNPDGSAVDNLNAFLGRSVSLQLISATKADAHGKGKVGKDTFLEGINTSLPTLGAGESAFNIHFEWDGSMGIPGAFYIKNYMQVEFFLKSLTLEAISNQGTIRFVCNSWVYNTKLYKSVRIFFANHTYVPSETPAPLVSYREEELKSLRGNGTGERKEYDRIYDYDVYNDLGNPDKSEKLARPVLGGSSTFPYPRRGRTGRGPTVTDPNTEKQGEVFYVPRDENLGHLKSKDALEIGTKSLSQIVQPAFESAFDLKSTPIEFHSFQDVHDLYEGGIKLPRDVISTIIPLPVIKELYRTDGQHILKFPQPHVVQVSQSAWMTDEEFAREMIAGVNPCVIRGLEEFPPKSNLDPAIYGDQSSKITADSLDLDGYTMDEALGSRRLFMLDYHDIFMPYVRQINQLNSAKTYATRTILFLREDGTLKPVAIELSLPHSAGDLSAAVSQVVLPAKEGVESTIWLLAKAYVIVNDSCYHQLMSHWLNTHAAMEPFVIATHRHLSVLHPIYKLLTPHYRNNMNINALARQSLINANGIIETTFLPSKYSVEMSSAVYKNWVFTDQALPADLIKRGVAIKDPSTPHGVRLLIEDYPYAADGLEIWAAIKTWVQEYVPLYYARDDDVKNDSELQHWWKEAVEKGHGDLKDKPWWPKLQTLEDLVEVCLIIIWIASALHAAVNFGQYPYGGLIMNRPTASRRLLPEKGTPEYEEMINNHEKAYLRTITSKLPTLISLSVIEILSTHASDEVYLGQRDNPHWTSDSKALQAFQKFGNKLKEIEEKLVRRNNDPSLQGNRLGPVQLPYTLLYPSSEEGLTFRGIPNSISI
The experiment in a line: 5-LOX enzyme assay (EIA kit, Cayman 760700). The format is biochemical. The source says:
The capacity of compounds 3a–j to inhibit the enzyme 5-lipoxygenase (5-LOX) has been investigated ([Youssif et al., 2019]).
The study used an enzyme immune assay (EIA) kit (catalogue no. 760700, Cayman Chemical, Ann Arbor, Michigan, USA) to evaluate the inhibitory activity of target analogues against soya bean 5-LOX, ensuring compliance with manufacturer’s instructions and protocols, and calculating IC50 values ([Roschek et al., 2009]).

The test system of a further series is PGE2. The experiment in a line: Rat serum PGE2 after carrageenan (ELISA). The format is in vivo. To be noted: 4 hours after subcutaneous carrageenan; for PGE2 serum concentration: mean ± SE.
From the text: Inhibiting PGE2 is a crucial strategy in anti-inflammatory therapy, playing a pivotal role in managing inflammation and its associated conditions.
as §1

The next series deals with TNF-α. The experiment in a line: Rat serum TNF-α after carrageenan (ELISA). Conditions: for TNFα serum concentration: mean ± SE. The series is classed as in vivo.
From the text: as §1

The subject of a further series is 5-LOX. To be noted: cited from earlier work.
A further series has as its system rat intestinal mucosa. The experiment in a line: Gastric ulcerogenic activity (macroscopic inspection). To be noted: oral 10 mg/kg. The series is classed as in vivo. Further details: Score: Severity lesions: scale not given here. Here is the method:
The two most common side effects of long-term NSAID use are gastrointestinal erosion and ulcers ([Hendawy et al., 2021]). As a result, we were curious about the ulcerogenic potential of the most efficacious drugs, 3e and 3j, when given orally. The ulcerogenic effects of 3e and 3j were assessed by macroscopic inspection of rat intestinal mucosa after oral administration of 10 mg/kg of 3e, 3j, indomethacin, and celecoxib ([Manivannan and Chaturvedi, 2011]).
The ulcerogenic effects of compounds 3e and 3j were evaluated by macroscopic examination of rat intestinal mucosa after oral administration of 10 mg/kg of these compounds and indomethacin and celecoxib ([Manivannan and Chaturvedi, 2011]). See Appendix A for details.

For the molecule `CCOC(=O)C1=C(C(=O)c2ccc(OC)cc2)C(c2ccc(-c3cccc(C(F)(F)F)c3)o2)NC(=O)N1C` (centres unmarked) [II], on mPGES-1 [1], the IC50 was 7560 ± 940 nM.
Regarding `O=C(Nc1ccc(OCCCCc2ccccc2)cc1)N(Cc1ccccc1)S(=O)(=O)c1ccc(Cl)cc1` [VI], in series [2], the IC50 is 240 nM and the “fold more active than the standard inhibitor MK-886 (PGE2 production)” value is given as “about 9 fold”.
`COc1ccc(C2NC(=O)NC(C)=C2C(=O)Nc2ccc(S(N)(=O)=O)cc2)cc1O` (centres unmarked) [Compound 3h, 4-[3-hydroxy-4-methoxyphenyl]-6-methyl-2-oxo-N-[4-sulfamoylphenyl]-1,2,3,4-tetrahydropyrimidine-5-carboxamide] yielded a melting point of 275 to 279 °C. Moreover, in the series with IL-6, the IL-6 %inhibition is given as 63% and the IL-6 serum concentration was 140.70 ± 4.20^ab pg/mL. Moreover, on mPGES-1 [3], the remaining activity at 10 µM amounted to 31.2% and it took 1320 nM to reach half-maximal inhibition (IC50). Moreover, the “fold less potent than 3j (mPGES-1)” value on mPGES-1 [3] (from IC50 values) is given as 1.5 fold. In series [4], the “% Of edema inhibition 1 h” value is on record as 30%, the “% Of edema inhibition 3 h” value stood at 49% and the “% Of edema inhibition 5 h” value was 58%. This molecule also yielded an IC50 at soya bean 5-LOX of 2640 nM. In the series on PGE2, the PGE2 %inhibition was determined as 69% and the PGE2 serum concentration was 95.00 ± 2.50^abc pg/mL. In the series on TNF-α, the TNFα %inhibition worked out at 56% and the TNFα serum concentration was 102.70 ± 2.90^ab pg/mL.
Consider `COc1ccc2c(c1)c(CC(=O)NS(=O)(=O)c1ccc(C)cc1)c(C)n2C(=O)c1ccc(Cl)cc1` [VII], for which the IC50 with 5-LOX (ref Elkady et al., 2012) is 2900 nM.
With `CCOC(=O)CCSC1=NC(c2ccccc2)C=C(c2ccccc2)N1` (centres unmarked) [IV], the “5-LOX % inhibition at 100 μg/mL” value in the series on 5-LOX (100 μg/mL, ref Lokwani et al., 2015) is given as 51.84%. In addition, in the series with 5-LOX (ref Lokwani et al., 2015), the IC50 was 19100 nM.
Consider `O=C(Cc1cn(-c2ccccc2)nc1-c1ccc(Cl)cc1)NS(=O)(=O)c1ccc(Cl)cc1` [VIII], for which the “folds more potent than lonazolac calcium against mPGES-1” value at mPGES-1 [1] (ref Elkady et al., 2012) is 19 fold. Further, in the series on 5-LOX (ref Elkady et al., 2012), the IC50 is 2900 nM and the “folds more potent than lonazolac calcium against 5-LOX” value is listed as 20 fold.
Molecule `COc1ccc(C2NC(=S)NC(C)=C2C(=O)Nc2ccc(S(N)(=O)=O)cc2)cc1OC` (centres unmarked) [Compound 3e, 4-[3,4-dimethoxyphenyl]-6-methyl-N-[4-sulfamoylphenyl]-2-thioxo-1,2,3,4-tetrahydropyrimidine-5-carboxamide] yielded a melting point of 272 to 274 °C. Besides, in the series with IL-6, the IL-6 %inhibition amounted to 75% and the IL-6 serum concentration is 94.10 ± 2.75 ^b pg/mL. Further, at mPGES-1 [3], the remaining activity at 10 µM came out at 28.6% and the IC50 was 970 nM. In the series with rat intestinal mucosa, the “Score: No. of gastric ulcers” value is recorded as 0.60 ± 0.01, the “Score: Severity lesions” value stood at 1.00 ± 0.01 and the “Ulceration in the isolated rat stomach (in words)” value was “mild hyperemia but no widespread ulceration”. In series [4], the “% Of edema inhibition 1 h” value came to 35%, the “% Of edema inhibition 3 h” value was determined as 57% and the “% Of edema inhibition 5 h” value is recorded as 65%. In addition, on soya bean 5-LOX, the half-maximal inhibitory concentration (IC50) amounted to 2070 nM. Moreover, in the series with PGE2, the PGE2 %inhibition was 72.70% and 73%; the PGE2 serum concentration is given as 83.50 ± 2.30 ^b pg/mL. Besides, in the series with TNF-α, the TNFα %inhibition is 67% and the TNFα serum concentration is recorded as 78.10 ± 2.20 ^b pg/mL.
Consider `CCOC(=O)C1=C(C(=O)c2ccc(OC)cc2)C(c2ccc(-c3cccc(C(F)(F)F)c3)o2)NC(=O)N1` (centres unmarked) [I], for which, at mPGES-1 [1], the 50% inhibitory concentration (IC50) was 4160 ± 470 nM.
Consider `COC(=O)C1=C(C)NC(Nc2cc(O)cc(Cl)c2)=NC1c1ccc(Cl)cc1` (centres unmarked) [V], for which the 5-LOX % inhibition in the series with 5-LOX (2.46 µM concentration, ref Venugopala et al., 2015) was 81.19%.
Molecule `COc1ccc(C2NC(=O)NC(C)=C2C(=O)Nc2ccc(S(N)(=O)=O)cc2)cc1OC` (centres unmarked) [Compound 3j, 4-[3,4-dimethoxyphenyl]-6-methyl-2-oxo-N-[4-sulfamoylphenyl]-1,2,3,4-tetrahydropyrimidine-5-carboxamide] showed a melting point of 266 to 267 °C. In the series on IL-6, the IL-6 %inhibition is recorded as 77% and the IL-6 serum concentration is given as 85.50 ± 2.35^bc pg/mL. In addition, at mPGES-1 [3], the remaining activity at 10 µM worked out at 24.7% and the midpoint of inhibition, the IC50, lay at 920 nM. Further, the “fold more potent than the reference MK886 (mPGES-1)” value at mPGES-1 [3] (from IC50 values) was 2.4 fold. For the same molecule, in the series with rat intestinal mucosa, the “Score: No. of gastric ulcers” value turned out to be 0, the “Score: Severity lesions” value is reported as 0 and the “Ulceration in the isolated rat stomach (in words)” value was “did not generate ulceration”. In series [4], the “% Of edema inhibition 1 h” value is on record as 38%, the “% Of edema inhibition 3 h” value was determined as 60% and the “% Of edema inhibition 5 h” value came out at 71%. Further, the IC50 at soya bean 5-LOX is 1980 nM and 1890 nM. In addition, in the series with PGE2, the PGE2 %inhibition is 79.20% and 79%; the PGE2 serum concentration is 62.60 ± 2.75 ^b pg/mL. Moreover, in the series with TNF-α, the TNFα %inhibition is listed as 71% and the TNFα serum concentration is recorded as 68.50 ± 2.00^bc pg/mL.
With `CC1=C(C(=O)OCc2ccccc2)C(c2ccc(-c3cccc(C(F)(F)F)c3)o2)NC(=O)N1CCC(=O)O` (centres unmarked) [III], the “fold higher activity than compound I (mPGES-1)” value on mPGES-1 [1] (ref Terracciano et al., 2015) was 10 fold.

Values taken from paper PMC11117333, “Design and synthesis of new dihydropyrimidine/sulphonamide hybrids as promising anti-inflammatory agents via dual mPGES-1/5-LOX inhibition” (Frontiers in Chemistry, 2024).
